Consider 20 compounds from patent US7326685B2, “Diagnostic or therapeutic somatostatin or bombesin analog conjugates and uses thereof” (The Administrators of the Tulane Educational Fund, priority 2001, dated 2008).

Read-outs that look alike come from different tables or passages of the source. Bounds are passed on as bounds.

The conditions of data set [1]: cited from earlier work.
For data set [2] the following is noted: cited from earlier work. This is another data set of the same source.
For data set [3] the following is noted: ×5 in mice; cited from earlier work.
In data set [4] the test system is neuroblastoma IMR-32 cells. As to the kind of experiment: CellTiter 96 tumor cell proliferation assay. The class given is cell-based. The settings on record: conjugate compared to non-conjugated methotrexate. The protocol:
A CellTiter 96 cell proliferation kit was used according to the described protocols (Promega Corporation, Madison, Wis.)). Culture medium (50 μl) containing various concentrations of different peptides was added respectively in each well of the 96-well kit plates followed by 50 μl of a suspension containing 5,000 cultured IMR-32 tumor cells. The plate was incubated at 37° C. for different times up to and including 7 days in a humidified, 5% CO2 atmosphere. Kit dye solution (15 μl ) was added to each well and the plate incubated the plates at 37° C. for 4 hours in a humidified, 5% CO2 atmosphere. After 4 hours, 100 μl of the solubilization/stop solution were added to each well and incubation was continued at 37° C. for 1 hour or more until complete solubilization of the formazan crystals occurred. Absorbencies of individual well solutions were then measured at 570 nm wavelength using a 96 well plate reader.

The conditions of data set [5]: 1×iv, mice; cited from earlier work.
Data set [6] concerns the target GH release from primary cultures of rat pituitary cells (somatostatin subtype 2 rat receptor related system) (Rattus norvegicus, UniProt P30680). As to the kind of experiment: Inhibition of GH release from primary cultures of rat pituitary cells. The class given is cell-based. The settings on record: GH stimulated with 1 nM GRH(1-29)NH2, 3 h. Here is the method:
This is a primary system for evaluating SRIF analog potency and can be considered a somatostatin subtype 2 rat receptor related system which historically also correlates well with human subtype 2 binding.
Anterior pituitaries from adult male rats weighing 200-250 g and housed under controlled conditions (lights on from 0500-1900 h), are dispersed using aseptic techniques by a trypsin/DNase method. The dispersed cells are diluted with sterile-filtered Dulbecco's modified Eagle medium (MEM) (Gibco Laboratories, Grand Island, N.Y. (GIBCO)), which is supplemented with 2.5% fetal calf serum (GIBCO), 3% horse serum (GIBCO), 10% fresh rat serum (stored on ice for no longer than 1 h) from the pituitary donors, 1% MEM nonessential amino acids (GIBCO), gentamycin (10 ng/ml; Sigma), and nystatin (10,000 U/ml; GIBCO). The cells are counted with a hemacytometer (approximately 2,000,000 cells per pituitary) and randomly plated at a density of 200,000 cells per well (Co-star cluster 24; Rochester Scientific Co., Rochester, N.Y.). […]
In preparation for a hormone challenge, the cells are washed 3× with medium 199 (GIBCO) to remove old medium and floating cells. […] GH in plasma and media is measured by a standard double antibody RIA using components supplied by the NIDDK and the National Hormone and Pituitary Program.

The conditions of data set [7]: rat, in vivo, ip.
Procedure: The solution was divided into three equal parts not exceeding 2 mL and injected intraperitoneally into each rat. Urine and feces were collected on an adsorbent pad overnight. At 24 hours, the rats were killed, dissected and each of the below organs were weighed and counted in a dose calibrator.

Sequence of GH release from primary cultures of rat pituitary cells (somatostatin subtype 2 rat receptor related system) (P30680 whole entry): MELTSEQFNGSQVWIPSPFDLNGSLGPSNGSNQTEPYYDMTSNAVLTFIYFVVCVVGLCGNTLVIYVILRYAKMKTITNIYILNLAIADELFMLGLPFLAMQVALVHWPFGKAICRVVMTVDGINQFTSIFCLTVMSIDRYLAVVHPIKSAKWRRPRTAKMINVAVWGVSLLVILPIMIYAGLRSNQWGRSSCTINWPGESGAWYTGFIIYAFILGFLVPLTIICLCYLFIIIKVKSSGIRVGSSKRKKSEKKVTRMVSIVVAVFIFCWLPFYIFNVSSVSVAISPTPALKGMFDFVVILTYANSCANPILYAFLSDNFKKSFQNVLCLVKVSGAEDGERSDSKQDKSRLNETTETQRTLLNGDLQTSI

With `N.N.[Cl][Pt][Cl]` [Cis-Pt], the MTD in data set [1] (in man) is given as 100 mg/m^2.
`CC(=O)O[C@@]12CO[C@@H]1C[C@H](O)[C@@]1(C)C(=O)[C@H](O)C3=C(C)[C@@H](OC(=O)[C@H](O)[C@@H](NC(=O)OC(C)(C)C)c4ccccc4)C[C@@](O)([C@@H](OC(=O)c4ccccc4)[C@H]21)C3(C)C` [Docetaxel]: the MTD in data set [2] (in vivo) is 60-100 mg/m^2.
For `O=c1[nH]c(=O)n([C@H]2C[C@H](O)[C@@H](CO)O2)cc1F` [FUDR], the MTD in data set [1] (in human i.a.) was 0.6 mg/kg/day; in data set [3] it was 100 mg/kg.
For the compound `Nc1nc(F)nc2c1ncn2[C@@H]1O[C@H](COP(=O)(O)O)[C@@H](O)[C@@H]1O` [Fludarabine-P04], in data set [2] (×5 days), the MTD was 25 mg/m^2/day.
Regarding `NC(=O)NO` [Hydroxyurea], in data set [1] (in man), the MTD is 35 mg/kg/day.
Take `O=c1[nH]cc(F)c(=O)[nH]1` [Peptide 5-FU, 5-FU]: the MTD in data set [2] (×5 days) is on record as 500 mg/m^2/day.
For the compound `CCCCCOC(=O)Nc1nc(=O)n([C@@H]2O[C@H](C)[C@@H](O)[C@H]2O)cc1F` [capecitabine], the MTD in data set [2] (orally) is 2.5 g/m^2.
For the compound `N.N.O=C([O-])C1(C(=O)[O-])CCC1.[Pt+2]` [carbo-Pt], in data set [1] (in man), the MTD is listed as 360 mg/m^2.
For the compound `Nc1ccn([C@@H]2O[C@H](CO)[C@@H](O)[C@@H]2O)c(=O)n1` [cytarabine], the MTD in data set [2] (in vivo) is reported as 100 mg/m^2/day.
`COc1cc([C@@H]2c3cc4c(cc3[C@@H](O[C@@H]3O[C@@H]5CO[C@@H](C)O[C@H]5[C@H](O)[C@H]3O)[C@H]3COC(=O)[C@H]23)OCO4)cc(OC)c1O` [etoposide]: the MTD in data set [1] (in man) is given as 100 mg/m^2.
For `Nc1ccn([C@@H]2O[C@H](CO)[C@@H](O)C2(F)F)c(=O)n1` [gemcitabine], the MTD in data set [2] (in vivo) is listed as 1000 mg/m^2.
For `CCc1c2c(nc3ccc(OC(=O)N4CCC(N5CCCCC5)CC4)cc13)-c1cc3c(c(=O)n1C2)COC(=O)[C@]3(O)CC` [irinotecan], in data set [2] (1×/wk depending on patient response), the MTD is reported as 50-150 mg/m^2.
Regarding `CN(Cc1cnc2nc(N)nc(N)c2n1)c1ccc(C(=O)N[C@@H](CCC(=O)O)C(=O)O)cc1` [methotrexate], the “Inhibitory effects on proliferation of IMR-32 cells (potency comparison, FIG. 1)” value in data set [4] was “equivalent potencies”. Besides, the MTD was under 500 mg/m^2 in data set [2] (i.v. w/o leuco) and 15 gm/m^2 in data set [2] (i.v.+leuco.).
With `O=C1c2c(O)ccc(O)c2C(=O)c2c(NCCNCCO)ccc(NCCNCCO)c21` [mitoxantrone], the MTD in data set [2] (in vivo) was 12-14 mg/m^2.
In the case of `NC(=O)c1ncn2c(=O)n(CCCl)nnc12` [mitozolomide], in data set [2] (in vivo), the MTD is over 400 mg/m^2.
With `CC[C@@]1(O)C(=O)OCc2c1cc1n(c2=O)Cc2cc3c(CN(C)C)c(O)ccc3nc2-1` [topotecan], the MTD in data set [1] (in humans) is on record as 1.5 mg/m^2/day. Moreover, the LD10 in data set [5] is on record as 75 mg/m^2.
For `CC[C@]1(O)C[C@H]2CN(CCc3c([nH]c4ccccc34)[C@@](C(=O)OC)(c3cc4c(cc3OC)N(C=O)[C@H]3[C@@](O)(C(=O)OC)[C@H](OC(C)=O)[C@]5(CC)C=CCN6CC[C@]43[C@@H]65)C2)C1` [vincristine], in data set [2] (in vivo), the MTD is listed as 1.4 mg/m^2.
For `CCC1=C[C@@H]2CN(C1)Cc1c([nH]c3ccccc13)[C@@](C(=O)OC)(c1cc3c(cc1OC)N(C)[C@H]1[C@@](O)(C(=O)OC)[C@H](OC(C)=O)[C@]4(CC)C=CCN5CC[C@]31[C@@H]54)C2` [vinorelbine], the MTD in data set [2] (in vivo) is 30 mg/m^2/wk.
For orientation: IC50 means the concentration that inhibits the measured activity by half. A low value points to greater potency in that assay. As for “D-Ser-D-Ser-D-Ser-D-Ser-D-Ser-L-Lys-D-Tyr-D-Ser-cyclo[L-Cys-L-Phe-D-Trp-L-Lys-L-Thr-L-Cys]-L-Thr-NH2 [JF-08-53]”, the concentration for half-maximal inhibition (IC50) in data set [6] was determined as 0.086 nM. Besides, the “Elimination of labeled peptide in urine and feces (FIG. 2)” value in data set [7] is “rapid and high efficiency elimination”.
For bleomycin, the MTD in data set [2] (in vivo) was 20 mg/m^2.
